Laboratory results as given in ChEMBL document CHEMBL3885861, “Open TG-GATES”.

Organism: Rattus norvegicus
Assay: Open TG-GATES - Regimen: Single
Format: toxicity, organism-based, Sprague-Dawley
Set-up: regimen Single, gender Male, age 6 weeks
Conditions: in vivo, po, 300 mg/kg, route gavage, dose level Low; for APTT / Bas / Eos / Fbg / Hb / Ht / Lym / MCH / MCHC / MCV / Mono / Neu / PT / Plat / RBC / Ret / WBC: tissue Blood; for KIDNEY_L / KIDNEY_R / KIDNEY_TOTAL: tissue Kidney; for LIVER: tissue Liver; for A/G / ALP / ALT / AST / BUN / CRE / Ca / Cl / DBIL / GLC / IP / K / LDH / Na / PL / RALB / TBIL / TC / TG / TP / gamma-GTP: tissue Plasma

Clc1c(Cl)c(Cl)c(Cl)c(Cl)c1Cl [PERCHLOROBENZENE]
TERMINAL_BW (3 h): 219 g
APTT (3 h): 18.9 s
Bas (3 h): 0%
Eos (3 h): 1%
Fbg (3 h): 225 mg/dL
Hb (3 h): 13.3 g/dL
Ht (3 h): 37.8%
Lym (3 h): 72.2%
MCH (3 h): 21.8 pg
MCHC (3 h): 35.2%
MCV (3 h): 61.7 fL
Mono (3 h): 2.8%
Neu (3 h): 23.2%
PT (3 h): 11.9 s
Plat (3 h): 121.8 x10_4/uL
RBC (3 h): 613.6 x10_4/ul
Ret (3 h): 7.1%
WBC (3 h): 86.9 x10_2/uL
KIDNEY_L (3 h): 1 g
KIDNEY_R (3 h): 1 g
KIDNEY_TOTAL (3 h): 2 g
LIVER (3 h): 9.9 g
A/G (3 h): 1.7
ALP (3 h): 1023.6 IU/L
ALT (3 h): 42.4 IU/L
AST (3 h): 87.2 IU/L
BUN (3 h): 10.2 mg/dL
CRE (3 h): 0.4 mg/dL
Ca (3 h): 10.7 mg/dL
Cl (3 h): 103 meq/L
DBIL (3 h): 0.062 mg/dL
GLC (3 h): 195.8 mg/dL
IP (3 h): 9.2 mg/dL
K (3 h): 3.9 meq/L
LDH (3 h): 211 IU/L
Na (3 h): 140.2 meq/L
PL (3 h): 145.8 mg/dL
RALB (3 h): 3.4 g/dL
TBIL (3 h): 0.1 mg/dL
TC (3 h): 72.6 mg/dL
TG (3 h): 109 mg/dL
TP (3 h): 5.4 g/dL
gamma-GTP (3 h): 1 IU/L
TERMINAL_BW (6 h): 218.5 g
APTT (6 h): 17.9 s
Bas (6 h): 0.2%
Eos (6 h): 1%
Fbg (6 h): 233.6 mg/dL
Hb (6 h): 13.6 g/dL
Ht (6 h): 38.5%
Lym (6 h): 77.2%
MCH (6 h): 21.9 pg
MCHC (6 h): 35.3%
MCV (6 h): 62 fL
Mono (6 h): 3.6%
Neu (6 h): 17.2%
PT (6 h): 11.9 s
Plat (6 h): 123.5 x10_4/uL
RBC (6 h): 623.6 x10_4/ul
Ret (6 h): 7%
WBC (6 h): 100 x10_2/uL
KIDNEY_L (6 h): 1 g
KIDNEY_R (6 h): 1 g
KIDNEY_TOTAL (6 h): 1.9 g
LIVER (6 h): 8.9 g
A/G (6 h): 1.6
ALP (6 h): 1089 IU/L
ALT (6 h): 31.4 IU/L
AST (6 h): 73.2 IU/L
BUN (6 h): 8.4 mg/dL
CRE (6 h): 0.4 mg/dL
Ca (6 h): 10.5 mg/dL
Cl (6 h): 102.8 meq/L
DBIL (6 h): 0.072 mg/dL
GLC (6 h): 190.6 mg/dL
IP (6 h): 9.4 mg/dL
K (6 h): 4.1 meq/L
LDH (6 h): 224.4 IU/L
Na (6 h): 140.8 meq/L
PL (6 h): 130.6 mg/dL
RALB (6 h): 3.4 g/dL
TBIL (6 h): 0.1 mg/dL
TC (6 h): 70.2 mg/dL
TG (6 h): 56 mg/dL
TP (6 h): 5.5 g/dL
gamma-GTP (6 h): 1 IU/L
TERMINAL_BW (9 h): 213.9 g
APTT (9 h): 18.1 s
Bas (9 h): 0%
Eos (9 h): 0.8%
Fbg (9 h): 228 mg/dL
Hb (9 h): 13.9 g/dL
Ht (9 h): 39.4%
Lym (9 h): 78.6%
MCH (9 h): 21.6 pg
MCHC (9 h): 35.2%
MCV (9 h): 61.5 fL
Mono (9 h): 3%
Neu (9 h): 16%
PT (9 h): 12.5 s
Plat (9 h): 125.7 x10_4/uL
RBC (9 h): 641.2 x10_4/ul
Ret (9 h): 6.4%
WBC (9 h): 85.4 x10_2/uL
KIDNEY_L (9 h): 1 g
KIDNEY_R (9 h): 0.9 g
KIDNEY_TOTAL (9 h): 1.9 g
LIVER (9 h): 8.7 g
A/G (9 h): 1.6
ALP (9 h): 857 IU/L
ALT (9 h): 30.6 IU/L
AST (9 h): 75.4 IU/L
BUN (9 h): 9.8 mg/dL
CRE (9 h): 0.4 mg/dL
Ca (9 h): 10.5 mg/dL
Cl (9 h): 104.2 meq/L
DBIL (9 h): 0.066 mg/dL
GLC (9 h): 202.8 mg/dL
IP (9 h): 10.2 mg/dL
K (9 h): 3.8 meq/L
LDH (9 h): 222 IU/L
Na (9 h): 142.6 meq/L
PL (9 h): 119.8 mg/dL
RALB (9 h): 3.4 g/dL
TBIL (9 h): 0.1 mg/dL
TC (9 h): 63.6 mg/dL
TG (9 h): 44.8 mg/dL
TP (9 h): 5.5 g/dL
gamma-GTP (9 h): 1.2 IU/L
TERMINAL_BW (24 h): 230 g
APTT (24 h): 17.8 s
Bas (24 h): 0.8%
Eos (24 h): 1%
Fbg (24 h): 225 mg/dL
Hb (24 h): 13.6 g/dL
Ht (24 h): 38.8%
Lym (24 h): 78%
MCH (24 h): 21.9 pg
MCHC (24 h): 35.1%
MCV (24 h): 62.4 fL
Mono (24 h): 3%
Neu (24 h): 17.2%
PT (24 h): 11.8 s
Plat (24 h): 114.2 x10_4/uL
RBC (24 h): 621 x10_4/ul
Ret (24 h): 6.4%
WBC (24 h): 81.3 x10_2/uL
KIDNEY_L (24 h): 1 g
KIDNEY_R (24 h): 1 g
KIDNEY_TOTAL (24 h): 2.1 g
LIVER (24 h): 11 g
A/G (24 h): 1.6
ALP (24 h): 883.2 IU/L
ALT (24 h): 32 IU/L
AST (24 h): 61.8 IU/L
BUN (24 h): 13.2 mg/dL
CRE (24 h): 0.4 mg/dL
Ca (24 h): 10.9 mg/dL
Cl (24 h): 103.2 meq/L
DBIL (24 h): 0.058 mg/dL
GLC (24 h): 202.4 mg/dL
IP (24 h): 7.1 mg/dL
K (24 h): 3.9 meq/L
LDH (24 h): 196 IU/L
Na (24 h): 141.6 meq/L
PL (24 h): 143.8 mg/dL
RALB (24 h): 3.3 g/dL
TBIL (24 h): 0.1 mg/dL
TC (24 h): 77.6 mg/dL
TG (24 h): 118.8 mg/dL
TP (24 h): 5.5 g/dL
gamma-GTP (24 h): 1.2 IU/L
